In ChEMBL document CHEMBL1151100, “Potential cancer chemopreventive and cytotoxic agents from Pulicaria crispa” (1988):
Values after ≈ are worked out from the molar mass of the structure shown.

How the values were obtained:
KB = assay: Cytotoxicity against human KB cells; type: functional; settings: read-out: ED50 (the source's name)
[1] = Anticarcinogenic activity in hamster embryonic cells at 25 ug/mL after 30 mins relative to control; type: functional, Cricetinae

Structure (SMILES) | EC50 (KB) | Activity [1]
C=C1C(=O)O[C@@H]2C[C@@]3(C)C[C@@H](O)C[C@H](C)[C@@]34O[C@H]4[C@H]12 | 0.4 µg/mL (≈ 1.51 µM) | 
C=C1C(=O)O[C@@H]2C[C@@]3(C)C[C@@H](OC(C)=O)C[C@H](C)[C@@]34O[C@H]4[C@H]12 | 0.05 µg/mL (≈ 0.163 µM) | 
COc1c(O)cc2oc(-c3ccc(O)c(O)c3)c(OC)c(=O)c2c1O [AXILLARIN] |  | 61.3%
C=C1C(=O)O[C@@H]2C[C@@]3(C)C[C@@H](O)C[C@H](C)C3=C[C@H]12 | 0.33 µg/mL (≈ 1.33 µM) | 
